Reference: US9783547B2, “Water soluble 4-azapodophyllotoxin analogs” (CENTRE NATIONAL DE LA RECHERCHE SCIENTIFIQUE (CNRS), priority 2014, dated 2017)
Where two headings read alike, the source gives them in different places.

Tests used:
Format in all cases: cell-based
[1] = test system: EAhy 926 endothelial cell line; assay: Endothelial cell morphology evaluation (rounding up); settings: Homo sapiens, EA.hy 926; 2 h incubation; rounding up of more than 15% of cells; read-out: Cmarr EA.hy 926: lowest concentration at which cell rounding up was observed
Source text: To assess the effects of the compounds on the morphology of endothelial cells, the EAhy 926 endothelial cell line was used, which is derived from the fusion of human umbilical vein endothelial cells (HUVEC) with the permanent human cell line A549 (Edgell et al, Proc. Natl. Acad. Sci. U.S.A., 1983, vol 80, issue 12, 3734-3737). The EAhy 926 cell line is considered as a good representative of native HUVEC because it expresses most of the biochemical markers of parental HUVEC (Bouis et al., Angiogenesis., 2001, 4, 91-102). EAhy 926 cells were grown in DMEM containing 2 mM L-glutamine, 10% foetal bovine serum, 100 U/mL penicillin and 100 μg/mL streptomycin in a humidified atmosphere (37° C., 5% CO2). Exponentially growing EAhy 926 cells were plated onto 96 well plates at 5000 cells/100 μL/well. Twenty-four hours after plating, the medium was aspirated, and 100 μL of medium containing the test compound was added to the well containing the cells (in triplicate) and incubated for 2 h (37° C., 5% CO2). The highest concentration used was 100 μM followed by serial two-fold dilutions down to low nanomolar concentrations, if needed for the most morphologically active compounds. After the 2 h-incubation period, digital photographs were taken of representative centre areas of each well at a magnification of 100× and 200×. The results are presented as the minimum concentration that could elicit the rounding up of more than 15% of cells in a field in order to exclude normal mitotic cells which is less that 15% in control 1% DMSO treated cells. Triplicate concentrations on the same plate were routinely carried out. CA4 was included in the experiments as a positive internal standard.
Compounds of the invention were first tested on EAhy 926 endothelial cells, which are transformed HUVEC (human umbilical vein endothelial cells). These cells undergo a rounding up upon a short 2 hour exposure to vascular disrupting agents, e.g. combretastatin A4.

A2780cis = assay: Cytotoxicity assay for human cancer cells (MTS); settings: A2780cis ovarian carcinoma-cisplatin resistant, 72 h, read-out: IC 50 value
Protocol: (§1) Human cells were grown in DMEM medium supplemented with 10% fetal calf serum (Invitrogen), in the presence of penicillin, streptomycin and amphotericin B (Fungizone) in 75 cm^2 flask under 5% CO2. Cells were plated in 96-well tissue culture microplates at a density of 650 cells/well in 200 μl medium and treated 24 h later with the compound dissolved in DMSO at concentrations ranging from 0.5-10 μM applied using an automated benchstation (Beckman Biomek 3000). Controls received the same volume of DMSO as the test wells (1% final concentration). After a 72 h exposure time, MTS reagent (Promega) was added and incubated for 3 h at 37° C. and the absorbance was read at 490 nm. Results are expressed as the inhibition of cell proliferation calculated as the ratio [(OD490 treated/OD490 control)×100].

A2780 = assay: Cytotoxicity assay for human cancer cells (MTS); settings: A2780 ovarian carcinoma, 72 h, read-out: IC 50 value
Protocol: as §1

A549 = assay: Cytotoxicity assay for human cancer cells (MTS); settings: A549 lung carcinoma, 72 h, read-out: IC 50 value
Protocol: as §1

EPC = assay: Cytotoxicity assay for human cancer cells (MTS)
Protocol: as §1

HCT116 = assay: Cytotoxicity assay for human cancer cells (MTS); settings: HCT-116, HCT116 colorectal carcinoma, 72 h, read-out: IC 50 value
Protocol: as §1

HCT15 = assay: Cytotoxicity assay for human cancer cells (MTS); settings: HCT-15, HCT15 colon adenocarcinoma, 72 h, read-out: IC 50 value
Protocol: as §1

HL60 = assay: Cytotoxicity assay for human cancer cells (MTS); settings: HL-60, HL60 acute promyelocytic leukemia, 72 h, read-out: IC 50 value
Protocol: as §1

HT29 = assay: Cytotoxicity assay for human cancer cells (MTS); settings: HT-29, HT29 colorectal adenocarcinoma, 72 h, read-out: IC 50 value
Protocol: as §1

HepG2 = assay: Cytotoxicity assay for human cancer cells (MTS); settings: HepG2 hepatocellular carcinoma, 72 h, read-out: IC 50 value
Protocol: as §1

K562 = assay: Cytotoxicity assay for human cancer cells (MTS); settings: K562 chronic myelogenous leukemia, 72 h, read-out: IC 50 value
Protocol: as §1

LnaCap = assay: Cytotoxicity assay for human cancer cells (MTS)
Protocol: as §1

MCF7R = assay: Cytotoxicity assay for human cancer cells (MTS); settings: MCF7R breast ER+ (multidrug resistant), 72 h, read-out: IC 50 value
Protocol: as §1

MCF7 = assay: Cytotoxicity assay for human cancer cells (MTS); settings: MCF7 breast ER+ (hormone dependent), 72 h, read-out: IC 50 value
Protocol: as §1

MDA435 = assay: Cytotoxicity assay for human cancer cells (MTS); settings: MDA435 breast ER− (highly metastatic to lungs), 72 h, read-out: IC 50 value
Protocol: as §1

MIA PaCa-2 = assay: Cytotoxicity assay for human cancer cells (MTS); settings: MIA PaCa-2 pancreatic carcinoma, 72 h, read-out: IC 50 value
Protocol: as §1

OVCAR8 = assay: Cytotoxicity assay for human cancer cells (MTS); settings: OVCAR-8, OVCAR8 ovarian adenocarcinoma, 72 h, read-out: IC 50 value
Protocol: as §1

PC3 = assay: Cytotoxicity assay for human cancer cells (MTS)
Protocol: as §1

SF268 = assay: Cytotoxicity assay for human cancer cells (MTS); settings: SF-268, SF268 brain glioma, 72 h, read-out: IC 50 value
Protocol: as §1

SK-OV3 = assay: Cytotoxicity assay for human cancer cells (MTS); settings: SK-OV-3, SK-OV3 ovarian adenocarcinoma, 72 h, read-out: IC 50 value
Protocol: as §1

U937 = assay: Cytotoxicity assay for human cancer cells (MTS); settings: U-937, U937 histiocytic lymphoma, 72 h, read-out: IC 50 value
Protocol: as §1

`COc1cc(Nc2c3c(nc4cc5c(cc24)OCO5)CCCC3=O)cc(OC)c1OC.Cl` [SGR307.HCl, 6,7-(Methylenedioxy)-9-(3,4,5-trimethoxyphenylamino)-3,4-dihydroacridin-1(2H)-one, hydrochloride] showed a minimal effective concentration [1] of 0.06 µM, an IC50 (A2780cis) of 109 nM and an IC50 (A2780) of 99 nM. For the same molecule, the IC50 (A549) was 158 nM, the IC50 (EPC; Homo sapiens, 72 h, EPC epithelioma (quiescent cell line), 72 h, MTS, read-out: IC 50 value) was 237 nM and the IC50 (EPC; Homo sapiens, quiescent cell line EPC, values of running text, read-out: IC50 values) was 310 nM. For the same molecule, the IC50 (EPC; quiescent cell line EPC, values of running text, hydrochloride, read-out: IC50 values) was 360 nM, the IC50 (HCT116) was 68 nM and the IC50 (HCT15) was 91 nM. For the same molecule, the IC50 (HL60) was 90 nM, the IC50 (HT29) was 129 nM and the IC50 (HepG2) was 139 nM. For the same molecule, the IC50 (K562) was 83 nM, the IC50 (LnaCap; LnaCap androgen-dependent prostate adenocarcinoma, value of running text, read-out: IC50) was 330 to 380 nM and the IC50 (LnaCap; LnaCap prostate adenocarcinoma (androgen dependent), 72 h, MTS, read-out: IC 50 value) was 103 nM. It also gave an IC50 (MCF7R) of 121 nM, an IC50 (MCF7) of 76 nM and an IC50 (MDA435) of 124 nM. For the same molecule, the IC50 (MIA PaCa-2) was 109 nM, the IC50 (OVCAR8) was 138 nM and the IC50 (PC3; PC-3, PC3 androgen-independent prostate adenocarcinoma, value of running text, read-out: IC50) was 120 to 130 nM. The IC50 (PC3; PC-3, PC3 prostate adenocarcinoma (androgen independent), 72 h, MTS, read-out: IC 50 value) was 98 nM, the IC50 (SF268) was 150 nM and the IC50 (SK-OV3) was 112 nM. The IC50 (U937) was 121 nM.
